Test results reported in BindingDB's records for aid1799746 (Csar, 2012).

Target: T1, UDP-3-O-acyl-N-acetylglucosamine deacetylase (Aquifex aeolicus (strain VF5), UniProt O67648)
T1 sequence (O67648 whole entry): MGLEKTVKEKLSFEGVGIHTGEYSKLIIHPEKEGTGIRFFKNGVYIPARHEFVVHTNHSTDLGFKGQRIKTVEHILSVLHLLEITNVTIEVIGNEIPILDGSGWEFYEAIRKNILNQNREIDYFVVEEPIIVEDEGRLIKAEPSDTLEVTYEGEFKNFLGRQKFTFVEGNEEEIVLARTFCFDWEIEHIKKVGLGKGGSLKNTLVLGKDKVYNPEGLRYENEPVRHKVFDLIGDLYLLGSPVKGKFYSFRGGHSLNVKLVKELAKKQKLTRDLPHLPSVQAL
Assay: ITC
Conditions: pH 7; 25 °C

Kd [µM]	Compound
0.732	NC[C@H](NC(=O)c1ccc(-c2ccccc2)cc1)C(=O)NO [CS249]
0.242	NC[C@H](NC(=O)c1ccc(-c2ccc(Br)cc2)cc1)C(=O)NO [CS250]
0.122	C[C@@H](O)[C@H](NC(=O)c1ccc(-c2ccc(Br)cc2)cc1)C(=O)NO [CS258]
1.21	C[C@@H](O)[C@H](NC(=O)c1ccc(C#Cc2ccccc2)cc1)C(=O)NO [CS259]
0.224	C[C@@H](O)[C@H](NC(=O)c1ccc(-c2ccccc2)cc1)C(=O)NO [CS263]

Compound	Kd [µM]
O=C(NO)[C@H]1COC(c2ccc(F)c(C(F)(F)F)c2)=N1 [CS271]	3.96
O=C(NO)[C@H]1COC(c2cc3cc(F)ccc3[nH]2)=N1 [CS272]	2.25
O=C(NO)c1csc(-c2ccc(F)c(C(F)(F)F)c2)n1 [CS277]	3.5
O=C(NO)[C@H]1COC(c2ccc(F)cc2)=N1 [CS279]	14.8
